For series [1], the target named is T1, Beta-hexosaminidase subunit beta (Homo sapiens, UniProt P07686).
T1 sequence (P07686 whole entry): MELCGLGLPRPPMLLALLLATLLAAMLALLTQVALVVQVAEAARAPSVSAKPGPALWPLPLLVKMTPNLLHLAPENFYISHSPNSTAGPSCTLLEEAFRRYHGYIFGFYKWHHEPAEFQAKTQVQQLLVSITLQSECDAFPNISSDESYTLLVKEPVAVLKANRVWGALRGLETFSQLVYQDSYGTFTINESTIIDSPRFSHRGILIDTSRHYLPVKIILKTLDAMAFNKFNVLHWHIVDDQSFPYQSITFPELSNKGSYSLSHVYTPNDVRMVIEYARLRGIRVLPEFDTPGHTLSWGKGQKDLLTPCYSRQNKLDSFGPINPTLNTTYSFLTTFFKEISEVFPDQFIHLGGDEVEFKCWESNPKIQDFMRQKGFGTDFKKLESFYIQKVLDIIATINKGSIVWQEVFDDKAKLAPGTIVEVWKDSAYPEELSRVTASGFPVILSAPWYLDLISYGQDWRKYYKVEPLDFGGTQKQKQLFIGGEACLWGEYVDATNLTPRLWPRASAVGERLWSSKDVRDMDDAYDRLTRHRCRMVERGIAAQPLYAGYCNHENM
Nature of the series: Inhibition of human beta hexosaminidase assessed as inhibitory constant using 4-methylumbelliferyl N-acetyl-beta-D-glucosaminide dihydrate as substrate measured every 60 sec for 45 mins by fluorescence spectrophotometry.

The target of series [2] is T2, Cytochrome P450 2B6 (Homo sapiens, UniProt P20813).
T2 sequence (P20813 whole entry): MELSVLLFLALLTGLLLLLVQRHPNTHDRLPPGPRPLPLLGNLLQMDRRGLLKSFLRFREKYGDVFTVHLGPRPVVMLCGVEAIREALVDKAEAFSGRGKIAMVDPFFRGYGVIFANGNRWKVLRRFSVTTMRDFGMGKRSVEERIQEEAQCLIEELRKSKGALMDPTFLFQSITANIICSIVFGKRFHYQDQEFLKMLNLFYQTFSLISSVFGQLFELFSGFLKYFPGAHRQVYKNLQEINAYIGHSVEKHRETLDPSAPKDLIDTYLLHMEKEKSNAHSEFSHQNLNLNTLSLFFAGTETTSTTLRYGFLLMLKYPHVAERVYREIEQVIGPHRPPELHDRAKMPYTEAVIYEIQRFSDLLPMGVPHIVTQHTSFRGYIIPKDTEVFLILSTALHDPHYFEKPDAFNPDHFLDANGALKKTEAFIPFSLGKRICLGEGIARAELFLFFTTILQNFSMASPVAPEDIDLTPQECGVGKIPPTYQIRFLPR
Briefly: Induction of CYP2B6 in human hepatocytes upto 20 uM. The class given is ADME, cell-based.

Drawing on ChEMBL document CHEMBL4354805, “Discovery of MK-8719, a Potent O-GlcNAcase Inhibitor as a Potential Treatment for Tauopathies” (J Med Chem, 2019), this text covers Ki and Activity for 1 molecule.

Structures are written as SMILES.

As for `CCNC1=N[C@@H]2[C@@H](O)[C@H](O)[C@@H](C(F)F)O[C@@H]2S1`, the Ki in series [1] was > 10 µM. In series [2], the Activity result is “Not Active”.
